The test has as its target T1, ALK (Homo sapiens, UniProt Q9UM73).
T1 construct: purchased Thermo Fisher Scientific (Life Technologies) SelectScreen
In words: SelectScreen Z'LYTE. It counts as biochemical. The method in brief:
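SelectScreen broad panel; activity (Z'LYTE, Adapta) plus binding formats. ATP: Km app for CSF1R Z'LYTE; 10 for CAMK1 Adapta. Readout = % per kinase.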

One may read the inhibition as the percentage by which the read-out fell short of the control. Low readings indicate a response near the control, high ones a response far below the control.

T1 sequence (Q9UM73 19-1620): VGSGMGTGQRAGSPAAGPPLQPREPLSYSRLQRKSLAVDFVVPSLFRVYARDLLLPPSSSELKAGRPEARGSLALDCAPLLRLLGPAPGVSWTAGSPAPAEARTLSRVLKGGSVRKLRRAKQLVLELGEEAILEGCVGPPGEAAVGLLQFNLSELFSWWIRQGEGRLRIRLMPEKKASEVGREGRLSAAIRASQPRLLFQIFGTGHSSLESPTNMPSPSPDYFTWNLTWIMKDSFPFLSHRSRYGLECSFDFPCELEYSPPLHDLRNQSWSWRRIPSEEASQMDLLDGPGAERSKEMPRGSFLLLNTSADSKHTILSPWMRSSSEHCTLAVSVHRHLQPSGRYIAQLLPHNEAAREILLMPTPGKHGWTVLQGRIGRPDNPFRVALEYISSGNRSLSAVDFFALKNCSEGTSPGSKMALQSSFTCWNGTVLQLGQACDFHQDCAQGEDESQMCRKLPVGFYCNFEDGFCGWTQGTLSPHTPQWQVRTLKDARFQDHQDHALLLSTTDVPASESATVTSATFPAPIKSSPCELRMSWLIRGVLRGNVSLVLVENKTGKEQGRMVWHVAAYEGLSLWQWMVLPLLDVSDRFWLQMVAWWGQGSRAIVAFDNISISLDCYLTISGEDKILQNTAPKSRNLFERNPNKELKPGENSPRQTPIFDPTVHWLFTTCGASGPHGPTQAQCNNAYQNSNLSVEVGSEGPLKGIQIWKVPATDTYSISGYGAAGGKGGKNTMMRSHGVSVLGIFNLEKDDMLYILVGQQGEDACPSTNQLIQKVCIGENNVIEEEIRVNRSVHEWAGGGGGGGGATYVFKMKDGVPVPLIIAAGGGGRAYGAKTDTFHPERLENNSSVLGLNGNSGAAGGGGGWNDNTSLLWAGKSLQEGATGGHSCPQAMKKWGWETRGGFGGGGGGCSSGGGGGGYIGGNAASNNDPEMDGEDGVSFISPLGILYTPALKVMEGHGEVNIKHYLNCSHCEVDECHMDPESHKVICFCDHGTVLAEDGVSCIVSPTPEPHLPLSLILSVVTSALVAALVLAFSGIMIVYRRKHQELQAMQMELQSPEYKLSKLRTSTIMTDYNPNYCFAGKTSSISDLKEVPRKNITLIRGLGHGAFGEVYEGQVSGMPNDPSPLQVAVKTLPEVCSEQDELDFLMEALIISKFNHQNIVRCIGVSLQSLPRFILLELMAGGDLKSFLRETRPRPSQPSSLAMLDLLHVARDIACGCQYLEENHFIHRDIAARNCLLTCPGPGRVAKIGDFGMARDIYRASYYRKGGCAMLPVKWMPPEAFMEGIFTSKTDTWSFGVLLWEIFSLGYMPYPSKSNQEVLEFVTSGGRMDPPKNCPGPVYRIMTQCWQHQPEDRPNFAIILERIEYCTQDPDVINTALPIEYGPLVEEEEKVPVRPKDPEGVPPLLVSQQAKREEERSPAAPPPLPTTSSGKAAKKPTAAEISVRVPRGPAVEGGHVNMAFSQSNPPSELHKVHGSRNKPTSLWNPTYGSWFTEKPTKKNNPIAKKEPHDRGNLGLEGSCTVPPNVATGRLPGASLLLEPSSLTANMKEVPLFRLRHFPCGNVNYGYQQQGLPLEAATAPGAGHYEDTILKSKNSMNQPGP

Compound `CN(C(=O)CN1CCOCC1)c1ccc2sc3c(-c4cccc5c(=O)cc(N6CC7CCC(C6)O7)oc45)cccc3c2c1` [NU5455] registered an inhibition at 1 µM of 17.3%.

For the origin of these results see publication PMC6934184, “Selective DNA-PKcs inhibition extends the therapeutic index of localized radiotherapy and chemotherapy” (The Journal of Clinical Investigation, 2019).
